Measured values: ChEMBL document CHEMBL4828715, “Discovery, Structure-Activity Relationships, and In Vivo Evaluation of Novel Aryl Amides as Brain Penetrant Adaptor Protein 2-Associated Kinase 1 (AAK1) Inhibitors for the Treatment of Neuropathic Pain” (J Med Chem, 2021)
Converted amounts (≈) assume the structure as drawn. The source made the active and inactive calls. The rule behind the calls is not given here.

Assays:
[1] = target: AP2-associated protein kinase 1 (Mus musculus) (UniProt Q3UHJ0); test: In vivo inhibition of AAK1 in C57BL6 mouse assessed as suppression of mu2 phosphorylation in brain lysate at 60 mg/kg, sc measured after 30 mins by Western blot analysis relative to control; format: functional, organism-based
[2] = Permeability of the compound across apical to basolateral membrane in human Caco-2 cells incubated for 2 hrs by LC-MS/MS analysis
[3] = Aqueous solubility of the compound at pH 7.4; format: physicochemical
[4] = Metabolic stability in mouse liver microsomes assessed as parent compound remaining at 0.5 uM incubated for 10 mins in presence of NADPH by LC-MS/MS analysis; format: ADME, Microsome; conditions: read-out: Stability
[5] = Drug concentration in brain of Sprague-Dawley rat model of chronic constriction injury-induced neuropathic pain at 30 mg/kg, sc; format: ADME, organism-based; conditions: in vivo, read-out: Ct
Mus musculus [6] = test: Antinociceptive activity against formalin-induced nociceptive behavior in C57BL6 mouse assessed as reduction in time spent phase 1 hind paw licking/biting at 30 mg/kg, sc administered 60 mins prior to formalin challenge by formalin test; format: functional; conditions: 1 h
[7] = Unbound drug concentration in brain of Sprague-Dawley rat model of chronic constriction injury-induced neuropathic pain at 3 mg/kg, sc; format: ADME, organism-based; conditions: in vivo
Mu-type opioid receptor = Mu-type opioid receptor (Homo sapiens, UniProt P35372); test: Inhibition of mu opioid receptor (unknown origin)
[8] = target: Alpha-2A adrenergic receptor (Homo sapiens, UniProt P08913); test: Inhibition of alpha 2A adrenergic receptor (unknown origin)
[9] = target: Kappa-type opioid receptor (Homo sapiens, UniProt P41145); test: Inhibition of kappa opioid receptor (unknown origin)
[10] = Ratio of drug concentration in brain to plasma in C57BL6 mouse at 30 mg/kg, sc; format: ADME, organism-based; conditions: read-out: BPR
[11] = Metabolic stability in human liver microsomes assessed as parent compound remaining at 0.5 uM incubated for 10 mins in presence of NADPH by LC-MS/MS analysis; format: ADME, Microsome; conditions: read-out: Stability
[12] = Drug concentration in plasma of C57BL6 mouse at 0.3 mg/kg, sc; format: ADME, organism-based; conditions: in vivo
[13] = Unbound drug concentration in plasma of Sprague-Dawley rat model of chronic constriction injury-induced neuropathic pain at 1 mg/kg, sc; format: ADME, organism-based; conditions: in vivo
[14] = Drug concentration in brain of Sprague-Dawley rat model of chronic constriction injury-induced neuropathic pain at 10 mg/kg, sc; format: ADME, organism-based; conditions: in vivo, read-out: Ct
[15] = Unbound brain-to-plasma concentration ratio in Sprague-Dawley rat model of chronic constriction injury-induced neuropathic pain at 60 mg/kg, sc measured after 240 mins; format: ADME, organism-based; conditions: read-out: K(p,uu,brain)
[16] = target: AP2-associated protein kinase 1 (Mus musculus) (UniProt Q3UHJ0); test: In vivo inhibition of AAK1 in C57BL6 mouse assessed as suppression of mu2 phosphorylation in brain lysate at 30 mg/kg, sc measured after 2 hrs by Western blot analysis; format: functional, organism-based
[17] = target: AP2-associated protein kinase 1 (Mus musculus) (UniProt Q3UHJ0); test: In vivo inhibition of AAK1 in C57BL6 mouse assessed as suppression of mu2 phosphorylation in brain lysate at 30 mg/kg, sc measured after 30 mins by Western blot analysis relative to control; format: functional, organism-based
[18] = target: SRSF protein kinase 1 (Homo sapiens) (UniProt Q96SB4); test: Inhibition of wild-type human full length SRPK1 (M1 to S655 residues) expressed in bacterial expression system assessed as residual binding level at 1 uM by Kinomescan method relative to control
[19] = target: AP2-associated protein kinase 1 (Mus musculus, UniProt Q3UHJ0); test: In vivo inhibition of AAK1 in C57BL6 mouse assessed as suppression of mu2 phosphorylation in brain lysate by Western blot analysis; format: functional, organism-based
[20] = target: MAP kinase-interacting serine/threonine-protein kinase 1 (Homo sapiens, UniProt Q9BUB5); test: Inhibition of wild-type human full length MKNK1 (M1 to L424 residues) expressed in mammalian expression system by Kinomescan method
[21] = target: Dual specificity protein kinase CLK4 (Homo sapiens, UniProt Q9HAZ1); test: Inhibition of wild-type human partial length CLK4 (R135 to K481 residues) expressed in bacterial expression system by Kinomescan method
[22] = Metabolic stability in rat liver microsomes assessed as parent compound remaining at 0.5 uM incubated for 10 mins in presence of NADPH by LC-MS/MS analysis; format: ADME, Microsome; conditions: read-out: Stability
[23] = Induction of motor coordination impairment in Sprague-Dawley rat at 60 mg/kg, sc measured up to 180 mins by rotarod test; format: organism-based; conditions: in vivo, 3 h
[24] = Unbound drug concentration in brain of Sprague-Dawley rat model of chronic constriction injury-induced neuropathic pain at 30 mg/kg, sc; format: ADME, organism-based; conditions: in vivo
[25] = target: Serine/threonine-protein kinase RIO1 (Homo sapiens) (UniProt Q9BRS2); test: Inhibition of wild-type human full length RIOK1 (M1 to K568 residues) expressed in bacterial expression system assessed as residual binding level at 1 uM by Kinomescan method relative to control
[26] = target: Serine/threonine-protein kinase RIO2 (Homo sapiens) (UniProt Q9BVS4); test: Inhibition of wild-type human partial length RIOK2 (M1 to D313 residues) expressed in mammalian expression system assessed as residual binding level at 1 uM by Kinomescan method relative to control
Rattus norvegicus = test: Reversal of chronic constriction injury-induced mechanical allodynia in Sprague-Dawley rat model of neuropathic pain at 60 mg/kg, sc measured up to 180 mins relative to control; format: functional; conditions: time min <=180
[27] = target: BMP-2-inducible protein kinase (Homo sapiens, UniProt Q9NSY1); test: Inhibition of wild-type human partial length BIKE (S34 to N329 residues) expressed in bacterial expression system by Kinomescan method
[28] = target: SRSF protein kinase 3 (Homo sapiens) (UniProt Q9UPE1); test: Inhibition of wild-type human partial length SRPK3 (P41 to P567 residues) expressed in bacterial expression system assessed as residual binding level at 1 uM by Kinomescan method relative to control
[29] = target: Sodium-dependent serotonin transporter (Homo sapiens, UniProt P31645); test: Inhibition of SERT (unknown origin)
[30] = Drug concentration in plasma of Sprague-Dawley rat model of chronic constriction injury-induced neuropathic pain at 30 mg/kg, sc; format: ADME, organism-based; conditions: in vivo
[31] = Protein binding in human plasma assessed as unbound fraction at 10 uM measured after 5 hrs by equilibrium dialysis method
[32] = Drug concentration in plasma of C57BL6 mouse at 1 mg/kg, sc; format: ADME, organism-based; conditions: in vivo
[33] = target: Phosphatidylinositol 4-phosphate 5-kinase type-1 alpha (Homo sapiens) (UniProt Q99755); test: Inhibition of wild-type human full length PIP5K1A (M1 to H562 residues) expressed in bacterial expression system assessed as residual binding level at 1 uM by Kinomescan method relative to control
Mus musculus [34] = test: Antinociceptive activity against formalin-induced nociceptive behavior in C57BL6 mouse assessed as reduction in phase 2 hind paw licking/biting at 10 mg/kg, sc administered 60 mins prior to formalin challenge by formalin test; format: functional, organism-based
[35] = target: Sodium-dependent noradrenaline transporter (Homo sapiens, UniProt P23975); test: Inhibition of NET (unknown origin)
Sequence of Sodium-dependent noradrenaline transporter (P23975 whole entry): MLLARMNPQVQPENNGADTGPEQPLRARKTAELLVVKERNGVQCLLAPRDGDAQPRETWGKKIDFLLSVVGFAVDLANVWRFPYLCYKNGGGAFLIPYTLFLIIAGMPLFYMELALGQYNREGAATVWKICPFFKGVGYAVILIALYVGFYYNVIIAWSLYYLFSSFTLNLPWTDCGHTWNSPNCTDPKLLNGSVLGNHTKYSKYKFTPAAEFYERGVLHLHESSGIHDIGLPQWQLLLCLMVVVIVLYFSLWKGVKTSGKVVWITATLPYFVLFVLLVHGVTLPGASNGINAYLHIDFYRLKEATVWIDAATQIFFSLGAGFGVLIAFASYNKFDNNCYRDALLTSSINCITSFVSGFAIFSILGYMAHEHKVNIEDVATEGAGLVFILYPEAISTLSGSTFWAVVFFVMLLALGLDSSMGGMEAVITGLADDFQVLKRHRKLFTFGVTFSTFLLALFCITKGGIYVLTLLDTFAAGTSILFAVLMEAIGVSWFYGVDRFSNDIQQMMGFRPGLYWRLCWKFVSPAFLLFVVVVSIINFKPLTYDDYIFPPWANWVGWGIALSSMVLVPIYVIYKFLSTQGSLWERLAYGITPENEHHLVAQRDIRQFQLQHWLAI

Sequence of AP2-associated protein kinase 1 (Mus musculus) (Q3UHJ0 whole entry, looked up, the tested form may be a part): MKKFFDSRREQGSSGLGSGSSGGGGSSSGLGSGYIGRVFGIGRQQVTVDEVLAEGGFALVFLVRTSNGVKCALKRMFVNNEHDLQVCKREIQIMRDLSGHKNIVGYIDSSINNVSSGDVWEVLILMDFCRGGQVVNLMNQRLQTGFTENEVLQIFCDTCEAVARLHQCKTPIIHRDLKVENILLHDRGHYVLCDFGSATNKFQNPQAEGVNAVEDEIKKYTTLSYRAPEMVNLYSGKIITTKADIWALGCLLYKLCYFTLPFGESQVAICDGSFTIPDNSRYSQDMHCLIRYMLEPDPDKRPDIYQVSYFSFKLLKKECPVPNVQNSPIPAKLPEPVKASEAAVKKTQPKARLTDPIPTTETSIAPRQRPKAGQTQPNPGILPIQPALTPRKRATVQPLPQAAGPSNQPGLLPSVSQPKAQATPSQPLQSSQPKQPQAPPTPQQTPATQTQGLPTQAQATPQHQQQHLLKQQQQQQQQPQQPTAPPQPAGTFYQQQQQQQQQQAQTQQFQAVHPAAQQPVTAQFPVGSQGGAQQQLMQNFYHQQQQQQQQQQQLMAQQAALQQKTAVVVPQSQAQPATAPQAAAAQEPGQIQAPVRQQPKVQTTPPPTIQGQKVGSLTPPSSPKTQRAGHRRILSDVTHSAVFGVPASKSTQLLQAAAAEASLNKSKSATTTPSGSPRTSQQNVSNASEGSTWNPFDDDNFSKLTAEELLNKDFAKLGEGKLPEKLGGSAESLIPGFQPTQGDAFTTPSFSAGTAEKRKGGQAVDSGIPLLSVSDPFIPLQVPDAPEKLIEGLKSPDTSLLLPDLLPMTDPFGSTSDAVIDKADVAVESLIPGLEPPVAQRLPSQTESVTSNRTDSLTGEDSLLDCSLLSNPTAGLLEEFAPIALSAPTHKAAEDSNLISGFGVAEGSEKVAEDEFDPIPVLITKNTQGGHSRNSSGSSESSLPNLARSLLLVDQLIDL
Sequence of Mu-type opioid receptor (P35372 whole entry): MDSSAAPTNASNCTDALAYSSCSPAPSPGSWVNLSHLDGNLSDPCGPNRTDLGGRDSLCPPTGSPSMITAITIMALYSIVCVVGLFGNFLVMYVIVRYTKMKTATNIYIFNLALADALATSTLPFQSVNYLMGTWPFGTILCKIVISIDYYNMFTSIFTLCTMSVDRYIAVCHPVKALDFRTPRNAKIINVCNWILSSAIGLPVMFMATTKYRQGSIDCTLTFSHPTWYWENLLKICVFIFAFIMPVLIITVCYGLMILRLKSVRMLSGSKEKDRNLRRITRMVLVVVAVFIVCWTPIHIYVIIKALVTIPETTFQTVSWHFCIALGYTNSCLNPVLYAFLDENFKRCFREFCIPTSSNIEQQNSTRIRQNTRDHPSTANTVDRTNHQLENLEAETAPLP
Sequence of Dual specificity protein kinase CLK4 (Q9HAZ1 whole entry, the tested form may be a part): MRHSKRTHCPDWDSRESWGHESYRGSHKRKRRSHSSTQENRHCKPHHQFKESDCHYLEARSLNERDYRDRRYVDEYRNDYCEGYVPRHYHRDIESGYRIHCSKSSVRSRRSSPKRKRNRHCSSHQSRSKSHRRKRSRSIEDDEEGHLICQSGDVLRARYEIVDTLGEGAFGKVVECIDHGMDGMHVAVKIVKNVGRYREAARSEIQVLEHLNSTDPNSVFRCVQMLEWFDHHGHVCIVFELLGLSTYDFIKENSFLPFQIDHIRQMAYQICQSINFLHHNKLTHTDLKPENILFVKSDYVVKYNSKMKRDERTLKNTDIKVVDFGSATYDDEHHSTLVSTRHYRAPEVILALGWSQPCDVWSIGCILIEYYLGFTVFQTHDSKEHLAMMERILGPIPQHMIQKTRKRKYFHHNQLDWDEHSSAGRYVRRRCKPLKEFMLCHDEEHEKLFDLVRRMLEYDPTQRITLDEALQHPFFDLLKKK
Sequence of Alpha-2A adrenergic receptor (P08913 whole entry): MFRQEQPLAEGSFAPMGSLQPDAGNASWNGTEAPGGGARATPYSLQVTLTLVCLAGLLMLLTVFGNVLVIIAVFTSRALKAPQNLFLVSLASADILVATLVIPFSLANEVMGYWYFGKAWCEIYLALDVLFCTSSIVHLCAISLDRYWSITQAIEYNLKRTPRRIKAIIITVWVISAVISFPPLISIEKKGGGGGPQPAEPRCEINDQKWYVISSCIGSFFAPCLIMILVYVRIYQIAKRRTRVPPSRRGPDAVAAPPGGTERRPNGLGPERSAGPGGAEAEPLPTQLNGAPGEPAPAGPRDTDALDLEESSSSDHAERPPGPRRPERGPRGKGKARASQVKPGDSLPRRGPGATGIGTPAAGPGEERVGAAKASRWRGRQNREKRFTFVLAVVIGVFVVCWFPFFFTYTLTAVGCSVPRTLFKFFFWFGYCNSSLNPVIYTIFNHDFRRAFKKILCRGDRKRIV
Sequence of Kappa-type opioid receptor (P41145 whole entry): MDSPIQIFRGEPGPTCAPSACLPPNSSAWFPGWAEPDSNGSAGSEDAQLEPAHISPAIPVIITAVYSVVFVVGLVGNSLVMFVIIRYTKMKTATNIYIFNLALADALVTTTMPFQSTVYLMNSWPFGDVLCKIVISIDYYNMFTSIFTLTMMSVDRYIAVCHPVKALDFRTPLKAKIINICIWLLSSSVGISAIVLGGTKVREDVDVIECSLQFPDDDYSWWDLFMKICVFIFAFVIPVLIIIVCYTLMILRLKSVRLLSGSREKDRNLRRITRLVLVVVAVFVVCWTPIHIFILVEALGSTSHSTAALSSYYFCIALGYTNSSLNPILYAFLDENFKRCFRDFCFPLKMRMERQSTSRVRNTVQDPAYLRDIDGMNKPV
Sequence of Serine/threonine-protein kinase RIO1 (Homo sapiens) (Q9BRS2 whole entry, the tested form may be a part): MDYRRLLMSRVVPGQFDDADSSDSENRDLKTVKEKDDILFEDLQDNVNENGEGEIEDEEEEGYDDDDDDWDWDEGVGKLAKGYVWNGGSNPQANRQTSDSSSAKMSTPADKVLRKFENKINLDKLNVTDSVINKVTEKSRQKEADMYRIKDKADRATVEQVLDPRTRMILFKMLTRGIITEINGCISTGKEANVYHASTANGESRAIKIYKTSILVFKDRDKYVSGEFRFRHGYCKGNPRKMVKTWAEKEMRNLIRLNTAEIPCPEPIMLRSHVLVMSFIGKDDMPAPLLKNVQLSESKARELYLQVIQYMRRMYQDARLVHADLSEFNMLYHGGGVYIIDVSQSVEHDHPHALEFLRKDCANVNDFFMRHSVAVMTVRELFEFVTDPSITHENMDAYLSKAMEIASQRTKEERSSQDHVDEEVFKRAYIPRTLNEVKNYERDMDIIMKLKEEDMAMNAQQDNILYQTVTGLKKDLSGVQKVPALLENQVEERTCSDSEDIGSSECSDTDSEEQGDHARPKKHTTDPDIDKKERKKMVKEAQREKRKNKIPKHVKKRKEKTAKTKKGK
Sequence of AP2-associated protein kinase 1 (Q3UHJ0 whole entry, the tested form may be a part): as the sequence (Q3UHJ0 whole entry, looked up, the tested form may be a part) above

`CC(C)C[C@@H](N)C(=O)Nc1ccc(-c2cnco2)c(OC(F)F)c1` gave an inhibition [1] of 80%, a Papp A→B at 2 h [2] of 12.9 ×10⁻⁶ cm/s and a solubility [3] of 600 µg/mL (≈ 1770 µM). The remaining at 10 min, 0.5 µM [4] was 46%, the concentration [5] was 33 µM and the Time (Mus musculus [6]) was 18 s. For the same molecule, the “Drug uptake(free)” value [7] was 0.03 µM, the IC50 (Mu-type opioid receptor) was greater than 30 µM and the IC50 [8] was greater than 30 µM. It also gave an IC50 [9] greater than 30 µM, a Kp [10] of 1.04 and a remaining at 10 min, 0.5 µM [11] of 84%. The concentration [12] was 0.4 µM, the “Cp(f)” value [13] was 0.01 µM and the concentration [14] was 7 µM. For the same molecule, the Kp uu at 4 h [15] was 0.7, the inhibition [16] was “Active” and the inhibition [17] was 62%. For the same molecule, the Activity [18] was 12%, the EC50 [19] was 8.3 µM and the IC50 [20] was 0.507 µM. For the same molecule, the IC50 [21] was 1.93 µM, the remaining at 10 min, 0.5 µM [22] was 68% and the Activity [23] was “Non-Toxic”. For the same molecule, the “Drug uptake(free)” value [24] was 0.92 µM, the Activity [25] was 7.6% and the Activity [26] was 3.8%. It also gave an Activity (Rattus norvegicus) of 42%, an IC50 [27] of 0.12 µM and an Activity [28] of 7.6%. The IC50 [29] was greater than 30 µM, the concentration [30] was 52 µM and the fraction unbound at 5 h, 10 µM [31] was 0.038. The concentration [32] was 1.2 µM, the Activity [33] was 31% and the Activity (Mus musculus [34]) was “Active”. It also gave an IC50 [35] greater than 30 µM.
